For series [1], the system named is Mbb. Ruminantium, Ms. Mazei, and Mm. mobile. As to conditions: cited from earlier work.
For another series, the system named is CH4 production. As to conditions: cited from earlier work.
The test system of a further series is rumen methanogens. Particulars: cited from earlier work; for suppression of CH4: bacteriocins, in vitro.
The nature of series [2]: 3NOP to adsorbent ratio study. Particulars: distilled water at 1% 3NOP loading, 24 hr. It counts as physicochemical. The procedure: Optimal loading of 3NOP onto adsorbents was determined by varying ratios of 3NOP to adsorbent. 3NOP and adsorbent were speed mixed at 2000 rpm for 1 min. at the following ratios by weight: 1:1.5, 1:2, 1:2.5. The adsorbed 3NOP powder mixture was then placed in distilled water at 1% 3NOP loading. The solution was allowed to equilibrate for 24 hr and then an aliquot was taken for HPLC to determine the reduction in 3NOP concentration.

A short description of series [3]: Adsorbent study: binding affinity and adsorptive capacity for 3NOP (HPLC at 230 nm).
From the text: The solution was then placed in an ultrasonic bath for ˜4 hr and then allowed to equilibrate over 24 hr.
A further series deals with goats. Particulars: 10 g/day/goat; cited from earlier work.
The subject of another series is cattle. Particulars: cited from earlier work.
Another series concerns rumen Methanobrevibacter. As to conditions: 5.6 μmol/L, in vitro; cited from earlier work.
Series [4] can be described thus: 3NOP pH and temperature stability (HPLC). It counts as physicochemical. Particulars: 1-month, 4-30° C., pH 4-10. As to the method: 3NOP pH and Temperature Stability: Confirmed via HPLC over a 1-month time period at temperature between 4-30° C. and pH 4-10.
Another series deals with sheep. As to conditions: cited from earlier work.
The nature of series [5]: 3NOP volatility (mass loss open to air). As to conditions: 500 mg open to air, 18-24° C., 15-30% RH, 6 days. The format is physicochemical. As to the method:
3NOP Volatility:500 mg of 3NOP in a 5 dram vial was left open to air at ˜18-24° C. at 15-30% RH over the course of 6 days. Average mass loss is ˜0.25% per day.

The mark [6] stands for this setting: 0.2 g of adsorbent in 10 mL of 1% 3NOP/H2O, after 24 hr, Control 8.258.
Setting [7] is: beef cattle, fed at […] of DM intake.
[8] abbreviates: dairy cows, 40-80 mg/kg feed DM.

Like-named read-outs stand apart in the source and are kept apart here.

On to `O=S(=O)(O)CCCBr` [BPS, 3-bromopropanesulfonate], for which, in series [1] (up to 250 μmol/L in pure cultures), the sensitivity of methanogens entry is given as “resistant”.
In the case of `O=c1[nH]c(=O)c2nccnc2[nH]1` [lumazin, 2,4-pteridinedione], the “CH4 production by pure methanogen cultures” value in series [1] (dose-dependent from 0.06 to 0.24 mmol/L) is reported as “significantly decreased”.
Consider `Oc1ccc(C=Cc2cc(O)cc(O)c2)cc1` [resveratrol], for which the “maximum suppression methane amount” value with CH4 production (25 mg, high-concentrate diets) is “high-concentrate diets; 41%”; in the series on CH4 production (25 mg, high-forage diets), 25 mg, high-forage diets; 60%;.
With Nisin, in the series on rumen methanogens, the “suppression of CH4” value was “up to 40%”.
Regarding `NCCCC[C@H](N)C(=O)O` [Lysine], the “Average Integrated Area of 3NOP in solution” value (“Average Integrated Area” below) in series [2] (3NOP:Adsorbent 1:1.5) came out at 2336.2; in series [2] (3NOP:Adsorbent 1:2), 2308.9; in series [2] (3NOP:Adsorbent 1:2.5) it was 2266.6. The molecule also came in with a 3NOP concentration in series [3] of 18.583 mM.
In the case of Cyclodextrin, the 3NOP concentration in series [3] (setting [6]) was 7.676 mM.
As to `CC[N+](=O)[O-]` [NE], in the series on CH4 production (10 mmol/L), the “maximum methane suppression amount” value is given as 10 mmol/L; 96.7% (NE), 96.7%.
As to `O=C(O)/C=C/C(=O)O` [fumarate], the “decrease of CH4 production” value in the series with rumen methanogens (3.5 g/L, continuous fermenters with forages as a substrate) is listed as 38%; with goats it was 11.9%.
For `O=C(O)/C=C/c1ccc(O)c(O)c1` [Caffeic acid], in the series with CH4 production (12 mM), the “maximum suppression methane amount” value is on record as 12 mM, Caffeic acid; 37.58%;.
For `N=C(N)NCCC[C@H](N)C(=O)O` [Arginine], the “Average Integrated Area” value was 2406.0 in series [2] (3NOP:Adsorbent 1:1.5), 2372.8 in series [2] (3NOP:Adsorbent 1:2) and 2435.2 in series [2] (3NOP:Adsorbent 1:2.5).
`N[C@@H](CCC(=O)O)C(=O)O` [Glutamic acid]: the “Average Integrated Area” value amounted to 2445.9 in series [2] (3NOP:Adsorbent 1:1.5), 2452.5 in [2] (3NOP:Adsorbent 1:2) and 2446.3 in series [2] (3NOP:Adsorbent 1:2.5).
For the molecule `C#CC(=O)O` [propynoic acid], the “lowering of CH4 production” value was 67% in the series on rumen methanogens (6 mmol/L) and 78% in the series with rumen methanogens (12 mmol/L).
`ClCBr` [BCM, bromochloromethane]: the toxicity / residues result with cattle (steers fed grain-based diets) is reported as “no signs of toxicity or residues in meat”.
In series [3] (setting [6]), `O=C([O-])CC(O)(CC(=O)[O-])C(=O)[O-].[Bi+3]` [Bismuth Citrate] gave a 3NOP concentration of 8.072 mM.
Regarding Lactobacillus plantarum, the “maximum suppression methane amount” value in the series on CH4 production (5.3 lg cfu/g fresh weight, 72 h) is “Lactobacillus plantarum, 8.8 ml/g(72 h)”.
Turning to `CC[C@H](C)C(=O)O[C@H]1C[C@@H](C)C=C2C=C[C@H](C)[C@H](CC[C@@H]3C[C@@H](O)CC(=O)O3)[C@H]21` [lovastatin], the “reduction of CH4 production” value in the series with rumen methanogens (Rusitec, 150 mg/L) is “approximately 42%”. Also, the “reduction of total CH4 production by rumen methanogens” value in the series on rumen methanogens (extracted from fermented rice straw, 48 h in vitro incubation) is about 28%.
Consider Bovicin HC5, for which, in the series on rumen methanogens, the “suppression of CH4” value was 50%.
For the molecule `CC[C@H](C)C(=O)O[C@H]1CCC=C2C=C[C@H](C)[C@H](CC[C@@H]3C[C@@H](O)CC(=O)O3)[C@H]21` [mevastatin], in the series on rumen Methanobrevibacter, the “growth of three strains of rumen Methanobrevibacter” value is given as “inhibited the growth”.
As for `O=C(O)CC(O)C(=O)O` (stereo not drawn) [Malate], in the series on cattle (setting [7]), the “decrease of CH4 production” value is on record as 16% and the “reduction of CH4 per unit of DM intake” value is recorded as 9%.
Consider `O=[N+]([O-])OCCCO` [3NOP, 3-Nitrooxypropanol], for which the “pH and temperature stability” value in series [4] was “Confirmed”. For the same molecule, the “Average Integrated Area” value in series [2] (3NOP:Adsorbent 1:1.5), in [2] (3NOP:Adsorbent 1:2) and in [2] (3NOP:Adsorbent 1:2.5) was 2566.4 each time. Moreover, the “decrease of CH4 production” value in the series with sheep (0.5 g/day) is 29%; in the series with cattle (setting [8]), “about 30%”. Further, the “degree of CH4 suppression” value in the series with cattle (added to the rumen through rumen cannula, 0.50 or 2.5 g per cow daily) is listed as 7-10%. Also, the “decrease of CH4 yield” value in the series on cattle (beef cattle, 2.0 g/day/cow) is given as 59%. The persistence of inhibition entry in the series with cattle (beef cattle, 2.0 g/day/cow) is on record as “up to 112 days”. The persistence of decrease entry with cattle (setting [8]) is reported as “up to 84 days”. The same molecule showed an Average mass loss in series [5] of about 0.25 % per day.
As for `O=[N+]([O-])OCCCO` [3-Nitrooxypropanol (NOP)], the “maximum methane suppression amount” value with CH4 production (0.08 mg/g dry matter (2019)) is 0.08 mg/g dry matter; 44%; with CH4 production (1.6 g, concentrate pellet) it was 23%; with CH4 production (1.6 g, roughage), 28%.
In the case of `O=[N+]([O-])O` [Nitrate], the “maximum methane suppression amount” value was 5 mM; 43.26% Liu et al., 2017) in the series with CH4 production (5 mM (Liu et al., 2017)); 5 mmol/L: 32.92% in the series on CH4 production (5 mmol/L (Wu et al., 2019)); 20 mg/g dry matter: 21% in the series with CH4 production (20 mg/g dry matter (Alvarez-Hess et al. 2019)).
On to `CC[C@@]1([C@@H]2O[C@@H]([C@H]3O[C@@](O)(CO)[C@H](C)C[C@@H]3C)C[C@@H]2C)CC[C@H]([C@]2(C)CC[C@]3(C[C@H](O)[C@@H](C)[C@@H]([C@@H](C)[C@@H](OC)[C@H](C)C(=O)O)O3)O2)O1` [monensin], for which the “CH4 production by tropical cattle” value with cattle (60 mg/day/cow) is on record as “did not lower CH4 production”. Further, the CH4 suppression result with cattle (10-15 ppm) is on record as “no CH4 suppression”. Further, the “lowering of CH4 production (g/kg DM intake)” value in the series on cattle (fed at 24-35 mg/kg diet) is given as “up to 10%”. In the series on cattle (tropical cattle, 250 mg/day/cow), the “decrease of CH4 production” value was “about 30%”.
For the molecule `CC[N+](=O)[O-]` [nitroethane], the “decrease of CH4 production” value in the series with sheep (orally 24 mg/kg body weight daily for 5 days) is “up to 45%”; with sheep (orally 72 mg/kg body weight daily for 5 days), at most 69%.
With `CC(CO)[N+](=O)[O-]` (stereo not drawn) [NPOH], in the series on CH4 production (10 mmol/L), the “maximum methane suppression amount” value is “(NEOH), 41.7% (NPOH)”.
On to `CC(CO)[N+](=O)[O-]` (stereo not drawn) [2-nitropropanol], for which, in the series on cattle (steers), the “lowering of CH4 production” value is recorded as 37%.
Consider `ClC(Cl)Cl` [chloroform], for which the “duration of inhibition of methanogenesis” value in the series on cattle (drenching to cattle) is on record as “up to 32 days”.
Take `O=C(O)/C=C/c1ccc(O)cc1` [p-coumaric acid]: in the series with CH4 production (12 mM), the “maximum suppression methane amount” value is on record as “p-coumaric acid; 28.33%”.
Consider `O=S(=O)([O-])[O-].O=S(=O)([O-])[O-].O=S(=O)([O-])[O-].[Bi+3].[Bi+3]` [Bismuth Sulfate], for which the 3NOP concentration in [3] (setting [6]) is listed as 8.079 mM.
As to `NC(=O)CC[C@H](N)C(=O)O` [Glutamine], the 3NOP concentration in series [3] (setting [6]) worked out at 7.588 mM.
Still for that read-out and setting: under `O=S(=O)([O-])[O-].[Cu+2]` [Copper Sulfate] stands 7.814 mM.
On to `O=[N+]([O-])CCO` [NEOH], for which the “maximum methane suppression amount” value in the series with CH4 production (10 mmol/L) is 10 mmol/L; 96.7% (NE), 96.7%.
`C[N+](C)(C)CC(=O)O` [Betaine]: the 3NOP concentration in series [3] (setting [6]) was 7.202 mM.

Values taken from US20250186566A1, “CELL-BASED VACCINES” (Arkea Bio Corp., priority 2023, published 2025).
